{"source": "ChEMBL document CHEMBL3992488", "about": "“Anticancer agents interacting with membrane glucose transporters” (Medchemcomm, 2016)", "key": {"[1]": {"target": "T1, Solute carrier family 2, facilitated glucose transporter member 1 (Homo sapiens, UniProt P11166)", "T1 sequence (P11166 whole entry)": "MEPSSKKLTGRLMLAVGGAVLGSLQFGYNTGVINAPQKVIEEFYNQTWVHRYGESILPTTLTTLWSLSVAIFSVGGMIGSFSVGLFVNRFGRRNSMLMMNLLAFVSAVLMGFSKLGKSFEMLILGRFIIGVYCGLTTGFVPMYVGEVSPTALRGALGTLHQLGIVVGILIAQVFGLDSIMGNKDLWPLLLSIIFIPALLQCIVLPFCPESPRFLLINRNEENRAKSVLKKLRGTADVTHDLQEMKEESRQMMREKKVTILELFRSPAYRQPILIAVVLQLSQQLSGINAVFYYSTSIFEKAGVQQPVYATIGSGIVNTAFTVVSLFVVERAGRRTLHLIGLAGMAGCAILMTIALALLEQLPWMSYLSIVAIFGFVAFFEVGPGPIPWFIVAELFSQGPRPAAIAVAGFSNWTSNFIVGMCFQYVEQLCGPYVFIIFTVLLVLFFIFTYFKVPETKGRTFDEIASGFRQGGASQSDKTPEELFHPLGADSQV", "experiment": "Inhibition of GLUT1 in human MCF7 cells assessed as reduction in [3H]-DG uptake pretreated for 20 mins followed by [3H]-DG addition measured after 6 mins by liquid scintillation counting method", "type": "cell-based"}, "[2]": {"tested_on": "RCC4", "experiment": "Growth inhibition of VHL-deficient human RCC4 cells by XTT assay", "type": "functional, cell-based"}, "[3]": {"experiment": "Inhibition of PI3K in human U937 cells assessed as reduction in GLUT4 translocation by measuring reduction in 2-[1,2-3H(N)]deoxy-D-glucose uptake after 3 mins by scintillation spectrometric method", "type": "cell-based", "details": "U-937"}, "[4]": {"species_on_record": "Homo sapiens", "experiment": "(§1) Inhibition of PI3K in human MCF7 cells assessed as reduction in insulin-stimulated GLUT4 translocation by measuring reduction in [1-14C]-2-deoxy-D-glucose uptake at 100 uM pretreated for 15 mins followed by insulin stimulation for 10 mins and subsequent addition of [1-14C]-2-deoxy-D-glucose measured after 10 mins relative to control", "type": "cell-based"}, "[5]": {"tested_on": "MCF7", "experiment": "Cytotoxicity against human MCF7 cells assessed as growth inhibition at 100 uM after 24 hrs by CellTiter 96 AQueous Non-Radioactive assay relative to control", "type": "functional", "details": "MCF7, 24 h, read-out: GI"}, "[6]": {"species_on_record": "Mus musculus", "experiment": "as §1, with “mouse 3T3L1” for “human MCF7”, “6” for “100”, “3 days” for “15 mins”", "type": "cell-based"}, "[7]": {"target": "T2, Solute carrier family 2, facilitated glucose transporter member 4 (Mus musculus, UniProt P14142)", "T2 sequence (P14142 whole entry)": "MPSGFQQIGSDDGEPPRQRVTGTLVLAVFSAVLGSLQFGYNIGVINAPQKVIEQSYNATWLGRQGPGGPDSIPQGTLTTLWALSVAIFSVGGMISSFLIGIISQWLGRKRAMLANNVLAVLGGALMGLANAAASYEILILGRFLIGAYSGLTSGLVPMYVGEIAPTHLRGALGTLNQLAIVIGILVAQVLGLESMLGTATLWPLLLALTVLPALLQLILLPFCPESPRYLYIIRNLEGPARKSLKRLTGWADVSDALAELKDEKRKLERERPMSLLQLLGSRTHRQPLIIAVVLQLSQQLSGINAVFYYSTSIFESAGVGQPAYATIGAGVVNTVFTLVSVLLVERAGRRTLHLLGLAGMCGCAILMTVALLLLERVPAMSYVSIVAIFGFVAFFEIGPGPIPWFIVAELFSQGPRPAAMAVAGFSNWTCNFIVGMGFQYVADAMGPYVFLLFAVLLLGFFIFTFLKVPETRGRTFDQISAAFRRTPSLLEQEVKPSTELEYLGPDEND", "experiment": "Competitive inhibition of GLUT4 in mouse 3T3L1 cells assessed as reduction in insulin-stimulated [3H]-2-deoxy-D-glucose uptake preincubated for 20 mins followed by measured for [3H]-2-deoxy-D-glucose addition measured after 1 to 10 mins by Lineweaver-Burk plot analysis", "type": "cell-based"}, "[8]": {"target": "T3, Solute carrier family 2, facilitated glucose transporter member 4 (Homo sapiens, UniProt P14672)", "T3 sequence (P14672 whole entry)": "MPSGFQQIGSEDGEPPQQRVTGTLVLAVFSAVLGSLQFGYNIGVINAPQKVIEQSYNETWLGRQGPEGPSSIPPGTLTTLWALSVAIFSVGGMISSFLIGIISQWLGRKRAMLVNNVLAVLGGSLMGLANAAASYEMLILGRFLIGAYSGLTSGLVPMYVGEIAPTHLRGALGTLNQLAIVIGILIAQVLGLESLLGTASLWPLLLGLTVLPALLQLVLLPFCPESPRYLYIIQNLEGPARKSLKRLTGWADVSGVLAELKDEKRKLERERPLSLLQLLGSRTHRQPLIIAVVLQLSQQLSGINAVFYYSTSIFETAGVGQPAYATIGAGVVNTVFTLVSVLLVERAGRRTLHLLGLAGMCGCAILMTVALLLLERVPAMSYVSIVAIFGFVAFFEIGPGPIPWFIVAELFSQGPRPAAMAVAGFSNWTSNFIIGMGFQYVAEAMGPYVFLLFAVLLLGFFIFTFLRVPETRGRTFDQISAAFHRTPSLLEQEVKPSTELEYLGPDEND", "experiment": "Inhibition of human GLUT4 expressed in CHO cells assessed as reduction in glucose uptake", "type": "cell-based"}, "[9]": {"target": "T1, Solute carrier family 2, facilitated glucose transporter member 1", "experiment": "Inhibition of human GLUT1 expressed in human DLD1 cells assessed as reduction in glucose uptake", "type": "cell-based"}, "[10]": {"target": "T4, Solute carrier family 2, facilitated glucose transporter member 1 (Homo sapiens) (UniProt P11166)", "T4 sequence (whole entry)": "T1 sequence (P11166 whole entry)", "experiment": "Inhibition of GLUT1 in human HT1080 cells assessed as reduction in [3H]2-deoxy-D-glucose uptake at 10 uM preincubated for 30 mins followed by [3H]2-deoxy-D-glucose addition measured after 60 mins by microbeta scintillation counting method relative to control", "type": "cell-based"}, "[11]": {"target": "T1, Solute carrier family 2, facilitated glucose transporter member 1", "experiment": "Mixed type non-competitive inhibition of glucose displaceable binding of [4-3H]cytochalasin B to GLUT1 in human erythrocyte membranes after 10 mins", "type": "cell membranes"}, "[12]": {"tested_on": "PC-3", "experiment": "Cytotoxicity against human PC3 cells after 48 hrs by SRB assay", "type": "functional, cell-based", "details": "PC-3, 48 h"}, "[13]": {"experiment": "Inhibition of human LDH5"}, "[14]": {"target": "T5, Solute carrier family 2, facilitated glucose transporter member 4 (Rattus norvegicus, UniProt P19357)", "T5 sequence (P19357 whole entry)": "T2 sequence (P14142 whole entry) with D11E, R17Q, L208I, I218L, M273L, S316L, G320E, A379S, K467R, A482T", "experiment": "Competitive inhibition of GLUT4 in Wistar rat adipocytes assessed as reduction in insulin-stimulated 3-O-[3H]methyl-D-glucose uptake measured for 30 secs by Lineweaver-Burk plot analysis", "type": "cell-based"}, "[15]": {"target": "T6, Solute carrier family 2, facilitated glucose transporter member 2 (Homo sapiens, UniProt P11168)", "T6 sequence (P11168 whole entry)": "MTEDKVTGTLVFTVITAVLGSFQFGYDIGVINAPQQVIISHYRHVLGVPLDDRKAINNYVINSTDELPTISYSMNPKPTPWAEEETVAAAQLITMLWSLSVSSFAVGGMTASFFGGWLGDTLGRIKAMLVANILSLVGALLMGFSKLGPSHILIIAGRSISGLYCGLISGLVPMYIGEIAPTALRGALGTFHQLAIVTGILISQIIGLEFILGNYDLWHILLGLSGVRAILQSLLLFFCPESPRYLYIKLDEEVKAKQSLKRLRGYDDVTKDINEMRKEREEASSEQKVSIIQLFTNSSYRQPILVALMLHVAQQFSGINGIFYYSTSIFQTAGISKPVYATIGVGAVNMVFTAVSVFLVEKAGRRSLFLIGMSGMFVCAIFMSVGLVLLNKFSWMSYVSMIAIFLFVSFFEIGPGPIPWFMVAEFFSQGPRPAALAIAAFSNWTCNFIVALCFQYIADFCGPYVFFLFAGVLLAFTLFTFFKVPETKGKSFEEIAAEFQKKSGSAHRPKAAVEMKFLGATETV", "experiment": "Inhibition of human GLUT2 expressed in Xenopus laevis oocytes assessed as reduction in [3H] 2-deoxyglucose uptake by scintillation spectrometric method", "type": "cell-based"}, "[16]": {"target": "T6, Solute carrier family 2, facilitated glucose transporter member 2", "experiment": "Inhibition of human GLUT2 expressed in Xenopus laevis oocytes assessed as reduction in [14C]fructose uptake by scintillation spectrometric method", "type": "cell-based"}, "[17]": {"tested_on": "A549", "experiment": "Antitumor activity against human A549 cells xenografted in NU/J nude mouse assessed as inhibition of tumor volume at 10 mg/kg, ip administered daily for 10 weeks measured every 7 days during compound dosing relative to control", "type": "functional"}}, "note": "Residue numbers refer to the chain shown, from its start.", "data": [{"compound": "O=c1c(O)c(-c2ccc(O)cc2)oc2cc(O)cc(O)c12", "note": "[KAEMPFEROL]", "values": [{"measurement": "IC50", "setting": "[1]", "value": 4, "unit": "µM"}]}, {"compound": "CC(C)(C)c1ccc(S(=O)(=O)NCc2ccc(C(=O)Nc3cccnc3)cc2)cc1", "values": [{"measurement": "IC50", "setting": "[2]", "value": 7.9, "unit": "µM"}]}, {"compound": "O=C1C[C@@H](c2ccc(O)cc2)Oc2cc(O)cc(O)c21", "note": "[NARINGENIN]", "values": [{"measurement": "IC50", "setting": "[3]", "value": 50, "unit": "µM"}, {"measurement": "inhibition", "setting": "[4]", "value": 50, "unit": "%"}, {"measurement": "inhibition of growth at 100 µM", "setting": "[5]", "value": 20, "unit": "%"}, {"measurement": "inhibition", "setting": "[6]", "value": 20, "unit": "%"}]}, {"compound": "COc1cc([C@H]2Oc3cc([C@H]4Oc5cc(O)cc(O)c5C(=O)[C@@H]4O)ccc3O[C@@H]2CO)ccc1O", "note": "[SILYBIN A]", "values": [{"measurement": "Ki", "setting": "[7]", "value": 60, "unit": "µM"}]}, {"compound": "C[C@H](NC(=O)[C@H](Cc1ccc(F)cc1)NC(=O)Cc1cccc(O)c1)c1ccccc1", "values": [{"measurement": "IC50", "setting": "[8]", "value": 0.195, "unit": "µM"}, {"measurement": "IC50", "setting": "[9]", "value": 0.267, "unit": "µM"}]}, {"compound": "CC(C)NC(=O)COc1cccc(-c2nc(Nc3ccc4[nH]ncc4c3)c3ccccc3n2)c1", "values": [{"measurement": "inhibition", "setting": "[10]", "value": "> 90", "unit": "%"}]}, {"compound": "Cc1cc2c(C(C)C)c(O)c(O)c(C=O)c2c(O)c1-c1c(C)cc2c(C(C)C)c(O)c(O)c(C=O)c2c1O", "note": "[GOSSYPOL]", "values": [{"measurement": "Ki", "setting": "[11]", "value": 20, "unit": "µM"}]}, {"compound": "O=C1C[C@@H]2/C(=C(O)\\C=C\\c3ccccc3)C(=O)C=C[C@@H]2O1", "note": "[CRYPTOCARYONE]", "values": [{"measurement": "IC50", "setting": "[12]", "value": 1.6, "unit": "µM"}]}, {"compound": "COC(=O)c1cc2c(C(F)(F)F)cc(-c3ccccc3)cc2n1O", "values": [{"measurement": "Ki", "setting": "[13]", "value": 5.1, "unit": "µM"}]}, {"compound": "O=c1c(O)c(-c2cc(O)c(O)c(O)c2)oc2cc(O)cc(O)c12", "note": "[MYRICETIN]", "values": [{"measurement": "Ki", "setting": "[14]", "value": 33.5, "unit": "µM"}, {"measurement": "IC50", "setting": "[15]", "value": "12 to 17", "unit": "µM"}, {"measurement": "IC50", "setting": "[16]", "value": "12 to 17", "unit": "µM"}]}, {"compound": "O=C(Oc1cccc(F)c1OC(=O)c1cccc(O)c1)c1cccc(O)c1", "values": [{"measurement": "inhibition in vivo at 10 mg/kg", "setting": "[17]", "value": "> 70", "unit": "%"}]}]}
